{
  "source": "patent US10888553B2",
  "about": "“Use of non-transition metal coordinated dipyridoxyl compounds to prevent and treat chemotherapy-induced PSN” (KARLSSON-TUNER INVEST AS, priority 2016, dated 2021)",
  "key": {"[1]": {"conditions": "relative to mangafodipir; cited from earlier work"}, "[2]": {"test": "Platinum (Pt) urine excretion in rats receiving oxaliplatin i.v. after i.v. mangafodipir, fodipir or saline (Example 2)", "assay_type": "in vivo, Wistar rats", "conditions": "0-24 h urine; for recovery of oxaliplatin-derived Pt in urine, % of the administered dose: 26.4 μmol/kg i.v. 5 min before oxaliplatin 2 mg/kg i.v., administered Pt 277.5 μg, saline control 31.3%; for increase in Pt-excretion: versus saline control", "procedure": "2 male Wistar rats (approximately 250 g) were injected i.v., via one of the tail veins, with 0.25 ml mangafodipir (20 mg/kg; Lot no. 303001, Nycomed Imaging AS) or fodipir (17.4 mg/kg; Lot no. PKJ 1285/113-14, Nycomed Imaging AS), each corresponding to 26.4 μmol/kg. Another control rat received saline instead of mangafodipir or fodipir. […] The rats were then immediately placed in metabolic cages for urine collection over a period of 0-24 hours. The urine samples were thereafter stored at −80° C. until Pt analysis. Before analysis, the samples were thawed and extensively shaken to obtain homogenous samples. A five ml aliquot was taken from each sample and 5 ml concentrated nitric acid was added. The samples were then resolved in a microwave oven and thereafter diluted with distilled water. The Pt content of each sample was analyzed by ICP-MS (Inductively Coupled Plasma Mass Spectrometry). […] This sample was treated in an identical manner to that of the urine samples and analyzed for its Pt content. Results are presented as total 0-24 h urine Pt content, expressed as the total amount, as well as, as percentage of the injected dose."}, "[3]": {"system": "CT26 colon cancer cells", "conditions": "cited from earlier work"}, "[4]": {"conditions": "Zn^2+ binding to fodipir; cited from earlier work"}, "[5]": {"conditions": "Mn^2+ binding to fodipir; cited from earlier work"}, "[6]": {"conditions": "Ca^2+ binding to fodipir; cited from earlier work"}, "[7]": {"conditions": "patients, single dose, over a 5-day period; cited from earlier work"}, "[8]": {"conditions": "in vivo; cited from earlier work"}, "[9]": {"conditions": "cited from earlier work; for Mn^2+ content released from fodipir or its metabolites: intravenous, MRI dose 5-10 μmol/kg"}, "[10]": {"conditions": "cited from earlier work"}, "[11]": {"conditions": "10 μmol/kg mangafodipir in 14 of 15 cycles, accumulated dose 140 μmol/kg; patient showed PD-like neurological symptoms; cited from earlier work"}},
  "note": "Like-named read-outs stand apart in the source and are kept apart here.",
  "data": [
    {"molecule": "Cc1ncc(COP(=O)([O-])O)c(CN(CCN(CC(=O)O)Cc2c(COP(=O)([O-])O)cnc(C)c2O)CC(=O)O)c1O.Cc1ncc(COP(=O)([O-])O)c(CN(CCN(CC(=O)O)Cc2c(COP(=O)([O-])O)cnc(C)c2O)CC(=O)O)c1O.Cc1ncc(COP(=O)([O-])O)c(CN(CCN(CC(=O)O)Cc2c(COP(=O)([O-])O)cnc(C)c2O)CC(=O)O)c1O.Cc1ncc(COP(=O)([O-])O)c(CN(CCN(CC(=O)O)Cc2c(COP(=O)([O-])O)cnc(C)c2O)CC(=O)O)c1O.Cc1ncc(COP(=O)([O-])O)c(CN(CCN(CC(=O)O)Cc2c(COP(=O)([O-])O)cnc(C)c2O)CC(=O)O)c1O.[Ca+2].[Ca+2].[Ca+2].[Ca+2].[Mn+2]", "note": "[calmangafodipir]", "values": [
      {"measurement": "manganese retention (and brain retention) reduced to", "setting": "[1]", "result": "about 50%"}
    ]},
    {"molecule": "Cc1ncc(COP(=O)(O)O)c(CN(CCN(CC(=O)O)Cc2c(COP(=O)(O)O)cnc(C)c2O)CC(=O)O)c1O", "note": "[fodipir, N,N′-bis-(pyridoxyl-5-phosphate)-ethylenediamine-N,N′-diacetic acid]", "values": [
      {"measurement": "recovery of oxaliplatin-derived Pt in urine, % of the administered dose", "setting": "[2]", "result": 43.4, "unit": "%"},
      {"measurement": "increase in Pt-excretion", "setting": "[2]", "result": 40.6, "unit": "%"},
      {"measurement": "effect of fodipir on cell killing in the lower concentration range of oxaliplatin", "setting": "[3]; fodipir 10 μM", "result": "additive effect"},
      {"measurement": "cell killing activity of fodipir towards CT26 colon cancer cells", "setting": "[3]; fodipir 100 μM alone", "result": "almost complete cell killing activity"},
      {"measurement": "interference of fodipir with the cancer cell killing ability of oxaliplatin", "setting": "[3]; fodipir 10, 30, 100 μM", "result": "Neither 10, 30, nor 100 μM fodipir interfered negatively"},
      {"measurement": "log formation constant (log KML)", "setting": "[4]", "result": 18},
      {"measurement": "log formation constant (log KML)", "setting": "[5]", "result": 15},
      {"measurement": "log formation constant (log KML)", "setting": "[6]", "result": 9}
    ]},
    {"molecule": "O=C(O)C(=O)O.[NH-][C@@H]1CCCC[C@H]1[NH-].[Pt+2]", "note": "[oxaliplatin]", "values": [
      {"measurement": "Pt dose excreted in feces", "setting": "[7]", "result": 2.1, "unit": "%"},
      {"measurement": "Pt dose excreted in the urine", "setting": "[7]", "result": 53.8, "unit": "%"},
      {"measurement": "terminal Pt half-life in red blood cells (RBC)", "setting": "[8]", "result": "about 50 days"},
      {"measurement": "volume of distribution", "setting": "[8]", "result": "about 600 litres"},
      {"measurement": "killing of CT26 cells by oxaliplatin", "setting": "[3]; oxaliplatin alone", "result": "killed CT26 cells in a concentration-dependent manner"}
    ]},
    {"molecule": "mangafodipir", "values": [
      {"measurement": "recovery of oxaliplatin-derived Pt in urine, % of the administered dose", "setting": "[2]", "result": 33.8, "unit": "%"},
      {"measurement": "increase in Pt-excretion", "setting": "[2]", "result": 8.0, "unit": "%"},
      {"measurement": "Mn^2+ that stays bound", "setting": "[9]; MRI dose 5-10 μmol/kg injected", "result": 20, "unit": "%"},
      {"measurement": "Mn^2+ content released from fodipir or its metabolites", "setting": "[9]", "result": "About 80%"},
      {"measurement": "Mn^2+ content released from fodipir or its metabolites", "setting": "[9]; listed as Mangafodipir", "result": "about 80%"},
      {"measurement": "mean plasma Mn content", "setting": "[10]; after eight cycles with 5 μmol/kg mangafodipir co-treatment (accumulated 40 μmol/kg), before 11.8±5.5 nM", "result": "19.8 ± 4.3", "unit": "nM"},
      {"measurement": "pre-existing oxaliplatin-induced PSN after combined oxaliplatin and mangafodipir treatment", "setting": "[10]; patients with PSN grade 2 or worse on a 1-3 scale", "result": "improved"},
      {"measurement": "brain MRI finding", "setting": "[11]", "result": "increased T1-weighted signal intensity in the basal ganglia"}
    ]}
  ]
}
